Tested on: control human primary myoblasts
Assay: Expression microarray of primary myoblasts transduced with lentivirus carrying DUX4-fl, DUX4-s or GFP
Method: Primary human myoblasts were collected and cultured as previously described (Snider et al., 2010). Primary myoblasts were maintained at or below 70% confluency for proliferation. For differentiation, cells were allowed to reach 95-100% confluency in growth medium. Once confluency was reached, the cells were changed to differentiation medium (F10 media supplemented with 1% horse serum, 10 μg/mL insulin, and 10 μg/mL transferrin, penicillin/streptomycin) and maintained for 4 days. Human RD cells were grown in DMEM in 10% bovine calf serum (Hyclone) and penicillin/streptomycin. The primary myoblasts were transduced with lentivirus carrying DUX-fl, DUX4- or GFP (MOI=15).
Expression microarrays were performed on the transduced cells at 24 hours after transduction as follows. […] Samples were analyzed by Illumina Human Whole Genome microarrays. Probe intensities were corrected, normalized, and summarized by the Lumi package of Bioconductor (Du et al., 2008). Differentially expressed genes were identified by the LIMMA package of Bioconductor (Wettenhall and Smyth, 2004). Gene set enrichment analysis (GSEA) was performed using the Bioconductor GOstats package (Falcon and Gentleman, 2007).

Work on “DUX4-fl: full-length DUX4 protein (SEQ ID NO:110), expressed from lentiviral or pCS2 vectors or in vitro translated” yielded an MT1A expression fc (cultured human skeletal muscle) of −1.526, an MT2A expression fc (cultured human skeletal muscle) of −1.443 and an MUC1 expression fc (cultured human skeletal muscle) of −1.74. For the same substance, the MYBPHL expression fc (cultured human skeletal muscle) was −1.492, the MYF5 expression fc (cultured human skeletal muscle) was −1.587 and the MYH13 expression fc (cultured human skeletal muscle) was −1.441. The NACC2 expression fc (cultured human skeletal muscle) was −1.787, the NFIL3 expression fc (cultured human skeletal muscle) was −1.823 and the NFKB1 expression fc (cultured human skeletal muscle) was −1.512. It also gave an NFKBIZ expression fc (cultured human skeletal muscle) of −1.572, an NINJ1 expression fc (cultured human skeletal muscle) of −1.694 and an NPTX2 expression fc (cultured human skeletal muscle) of −1.386. It also gave an NRXN2 expression fc (cultured human skeletal muscle) of −1.627, an NT5E expression fc (cultured human skeletal muscle) of −1.558 and an OCEL1 expression fc (cultured human skeletal muscle) of −1.412. For the same substance, the P2RX6 expression fc (cultured human skeletal muscle) was −1.475, the PARP3 expression fc (cultured human skeletal muscle) was −1.483 and the PCK2 expression fc (cultured human skeletal muscle) was −1.776. For the same substance, the PCTK3 expression fc (cultured human skeletal muscle) was −1.641, the PDK4 expression fc (cultured human skeletal muscle) was −1.521 and the PDPN expression fc (cultured human skeletal muscle) was −1.623. For the same substance, the PFKFB4 expression fc (cultured human skeletal muscle) was −1.865, the PHF15 expression fc (cultured human skeletal muscle) was −1.415 and the PHLDA3 expression fc (cultured human skeletal muscle) was −1.557. For the same substance, the PLA2G4C expression fc (cultured human skeletal muscle) was −1.429, the PLEKHA4 expression fc (cultured human skeletal muscle) was −1.457 and the PLIN2 expression fc (cultured human skeletal muscle) was −1.413. For the same substance, the PLXNB1 expression fc (cultured human skeletal muscle) was −1.442, the PLXNB2 expression fc (cultured human skeletal muscle) was −1.649 and the PPAP2B expression fc (cultured human skeletal muscle) was −1.742. It also gave a PPP3CC expression fc (cultured human skeletal muscle) of −1.457, a PRDM1 expression fc (cultured human skeletal muscle) of −1.573 and a PRKCD expression fc (cultured human skeletal muscle) of −1.531. It also gave a PSMB10 expression fc (cultured human skeletal muscle) of −1.6, a PSME2 expression fc (cultured human skeletal muscle) of −1.477 and a PTGES expression fc (cultured human skeletal muscle) of −1.632. It also gave a PTPRU expression fc (cultured human skeletal muscle) of −1.477, an RALGDS expression fc (cultured human skeletal muscle) of −1.475 and an RBCK1 expression fc (cultured human skeletal muscle) of −1.636. The RBM43 expression fc (cultured human skeletal muscle) was −1.517, the RCAN1 expression fc (cultured human skeletal muscle) was −1.566 and the RELB expression fc (cultured human skeletal muscle) was −1.391. It also gave an RGS20 expression fc (cultured human skeletal muscle) of −1.478, an RHBDF2 expression fc (cultured human skeletal muscle) of −1.741 and an RRAS expression fc (cultured human skeletal muscle) of −1.405. It also gave an RRBP1 expression fc (cultured human skeletal muscle) of −1.483, an RTKN expression fc (cultured human skeletal muscle) of −1.734 and an RTTN expression fc (cultured human skeletal muscle) of −1.663. The RUSC1 expression fc (cultured human skeletal muscle) was −1.47, the SERPING1 expression fc (cultured human skeletal muscle) was −1.668 and the SESN1 expression fc (cultured human skeletal muscle) was −1.581. For the same substance, the SHISA5 expression fc (cultured human skeletal muscle) was −1.763, the SIX5 expression fc (cultured human skeletal muscle) was −1.673 and the SLC16A3 expression fc (cultured human skeletal muscle) was −1.582. The SLC22A18 expression fc (cultured human skeletal muscle) was −1.56, the SLC25A28 expression fc (cultured human skeletal muscle) was −1.534 and the SLC39A14 expression fc (cultured human skeletal muscle) was −1.872. It also gave an SPTLC3 expression fc (cultured human skeletal muscle) of −1.444, an SQSTM1 expression fc (cultured human skeletal muscle) of −1.695 and an SRGN expression fc (cultured human skeletal muscle) of −1.873. The STC1 expression fc (cultured human skeletal muscle) was −1.571, the STEAP3 expression fc (cultured human skeletal muscle) was −1.405 and the SUSD2 expression fc (cultured human skeletal muscle) was −1.398. The TAPBP expression fc (cultured human skeletal muscle) was −1.844, the TCEA3 expression fc (cultured human skeletal muscle) was −1.706 and the TCP11L1 expression fc (cultured human skeletal muscle) was −1.532. The TMEM45A expression fc (cultured human skeletal muscle) was −1.574, the TMEM173 expression fc (cultured human skeletal muscle) was −1.816 and the TNFAIP2 expression fc (cultured human skeletal muscle) was −1.593. The TNFRSF1A expression fc (cultured human skeletal muscle) was −1.672, the TNFRSF6B expression fc (cultured human skeletal muscle) was −1.678 and the TNFSF13B expression fc (cultured human skeletal muscle) was −1.763. The TNS3 expression fc (cultured human skeletal muscle) was −1.56, the TRAF3IP2 expression fc (cultured human skeletal muscle) was −1.529 and the TRIP6 expression fc (cultured human skeletal muscle) was −1.457. For the same substance, the TRNP1 expression fc (cultured human skeletal muscle) was −1.527, the TSC22D3 expression fc (cultured human skeletal muscle) was −1.729 and the VASN expression fc (cultured human skeletal muscle) was −1.76. It also gave a VEZF1 expression fc (cultured human skeletal muscle) of −1.528, an XBP1 expression fc (cultured human skeletal muscle) of −1.679 and a ZBTB4 expression fc (cultured human skeletal muscle) of −1.417. The ZC3H12A expression fc (cultured human skeletal muscle) was −1.546, the ZFHX3 expression fc (cultured human skeletal muscle) was −1.762 and the ZFP36L2 expression fc (cultured human skeletal muscle) was −1.545. The ZFP90 expression fc (cultured human skeletal muscle) was −1.609, the ZNF337 expression fc (cultured human skeletal muscle) was −1.693 and the ZNF395 expression fc (cultured human skeletal muscle) was −1.392. For the same substance, the “Full.fc (expression fold change for DUX4-fl targets)” value (gene AVPI1) was 2, the “Full.fc (expression fold change for DUX4-fl targets)” value (gene BZW2) was 2.7 and the “Full.fc (expression fold change for DUX4-fl targets)” value (gene C1orf63) was 2.2. For the same substance, the “Full.fc (expression fold change for DUX4-fl targets)” value (gene C6orf191) was 2.1, the “Full.fc (expression fold change for DUX4-fl targets)” value (gene C14orf102) was 2.5 and the “Full.fc (expression fold change for DUX4-fl targets)” value (gene C14orf138) was 1.7. For the same substance, the “Full.fc (expression fold change for DUX4-fl targets)” value (gene C21orf91) was 1.8, the “Full.fc (expression fold change for DUX4-fl targets)” value (gene CBARA1) was 2.1 and the “Full.fc (expression fold change for DUX4-fl targets)” value (gene CCNA1) was 7.5. For the same substance, the “Full.fc (expression fold change for DUX4-fl targets)” value (gene CCNJ) was 2.7, the “Full.fc (expression fold change for DUX4-fl targets)” value (gene CLDN14) was 3.1 and the “Full.fc (expression fold change for DUX4-fl targets)” value (gene CLK1) was 1.8. The “Full.fc (expression fold change for DUX4-fl targets)” value (gene CSE1L) was 2.9, the “Full.fc (expression fold change for DUX4-fl targets)” value (gene CTNNAL1) was 1.6 and the “Full.fc (expression fold change for DUX4-fl targets)” value (gene CTR9) was 2.4. For the same substance, the “Full.fc (expression fold change for DUX4-fl targets)” value (gene DBR1) was 3.4, the “Full.fc (expression fold change for DUX4-fl targets)” value (gene DDX47) was 1.7 and the “Full.fc (expression fold change for DUX4-fl targets)” value (gene DEFB103A) was 6.4. For the same substance, the “Full.fc (expression fold change for DUX4-fl targets)” value (gene DENND2C) was 2.6, the “Full.fc (expression fold change for DUX4-fl targets)” value (gene EGLN1) was 1.6 and the “Full.fc (expression fold change for DUX4-fl targets)” value (gene EXOSC10) was 1.9. For the same substance, the “Full.fc (expression fold change for DUX4-fl targets)” value (gene FAM90A1) was 3.6, the “Full.fc (expression fold change for DUX4-fl targets)” value (gene FBXO33) was 3.2 and the “Full.fc (expression fold change for DUX4-fl targets)” value (gene FRG2B) was 2. The “Full.fc (expression fold change for DUX4-fl targets)” value (gene GPBAR1) was 1.9, the “Full.fc (expression fold change for DUX4-fl targets)” value (gene GTF2F1) was 3.2 and the “Full.fc (expression fold change for DUX4-fl targets)” value (gene HOXB2) was 2.2. The “Full.fc (expression fold change for DUX4-fl targets)” value (gene JUP) was 3.2, the “Full.fc (expression fold change for DUX4-fl targets)” value (gene KDM5B) was 1.8 and the “Full.fc (expression fold change for DUX4-fl targets)” value (gene KIF21A) was 1.8. For the same substance, the “Full.fc (expression fold change for DUX4-fl targets)” value (gene MAPKAP1) was 1.6, the “Full.fc (expression fold change for DUX4-fl targets)” value (gene MAST4) was 1.7 and the “Full.fc (expression fold change for DUX4-fl targets)” value (gene MED13) was 1.8. The “Full.fc (expression fold change for DUX4-fl targets)” value (gene NANS) was 1.9, the “Full.fc (expression fold change for DUX4-fl targets)” value (gene NFYA) was 2.3 and the “Full.fc (expression fold change for DUX4-fl targets)” value (gene PABPN1) was 2.6. For the same substance, the “Full.fc (expression fold change for DUX4-fl targets)” value (gene PANX2) was 3.8, the “Full.fc (expression fold change for DUX4-fl targets)” value (gene PELI1) was 2.9 and the “Full.fc (expression fold change for DUX4-fl targets)” value (gene PNP) was 7. For the same substance, the “Full.fc (expression fold change for DUX4-fl targets)” value (gene PPP2R2B) was 4.1, the “Full.fc (expression fold change for DUX4-fl targets)” value (gene PRAMEF12) was 7.8 and the “Full.fc (expression fold change for DUX4-fl targets)” value (gene PRPF18) was 1.7. The “Full.fc (expression fold change for DUX4-fl targets)” value (gene PRR4) was 3.6, the “Full.fc (expression fold change for DUX4-fl targets)” value (gene PTP4A1) was 1.7 and the “Full.fc (expression fold change for DUX4-fl targets)” value (gene PVRL3) was 2.2. The “Full.fc (expression fold change for DUX4-fl targets)” value (gene RBBP6) was 2, the “Full.fc (expression fold change for DUX4-fl targets)” value (gene RFPL1) was 8.4 and the “Full.fc (expression fold change for DUX4-fl targets)” value (gene RFPL2) was 7.3. For the same substance, the “Full.fc (expression fold change for DUX4-fl targets)” value (gene RFPL4B) was 8.3, the “Full.fc (expression fold change for DUX4-fl targets)” value (gene RTN4) was 1.6 and the “Full.fc (expression fold change for DUX4-fl targets)” value (gene SAMD8) was 1.6. For the same substance, the “Full.fc (expression fold change for DUX4-fl targets)” value (gene SEC61A2) was 1.8, the “Full.fc (expression fold change for DUX4-fl targets)” value (gene SFRS2B) was 4.2 and the “Full.fc (expression fold change for DUX4-fl targets)” value (gene SH3GL2) was 1.6. For the same substance, the “Full.fc (expression fold change for DUX4-fl targets)” value (gene SIAH1) was 3.7, the “Full.fc (expression fold change for DUX4-fl targets)” value (gene SNAI1) was 1.9 and the “Full.fc (expression fold change for DUX4-fl targets)” value (gene SON) was 2.1. The “Full.fc (expression fold change for DUX4-fl targets)” value (gene SPRYD5) was 1.8, the “Full.fc (expression fold change for DUX4-fl targets)” value (gene SPTY2D1) was 3.3 and the “Full.fc (expression fold change for DUX4-fl targets)” value (gene SRRT) was 2.6. The “Full.fc (expression fold change for DUX4-fl targets)” value (gene SYNJ1) was 2.4, the “Full.fc (expression fold change for DUX4-fl targets)” value (gene TAF4B) was 1.9 and the “Full.fc (expression fold change for DUX4-fl targets)” value (gene TFIP11) was 3.2. The “Full.fc (expression fold change for DUX4-fl targets)” value (gene TRIM43) was 8.1, the “Full.fc (expression fold change for DUX4-fl targets)” value (gene TRIM48) was 7.9 and the “Full.fc (expression fold change for DUX4-fl targets)” value (gene TRIM49L1) was 6.9. For the same substance, the “Full.fc (expression fold change for DUX4-fl targets)” value (gene TRIM49L2) was 6.9, the “Full.fc (expression fold change for DUX4-fl targets)” value (gene USP29) was 2.6 and the “Full.fc (expression fold change for DUX4-fl targets)” value (gene ZNF217) was 4.1. The “Full.fc (expression fold change for DUX4-fl targets)” value (gene ZNF296) was 5.5, the “Full.fc (expression fold change for DUX4-fl targets)” value (gene ZNF705A) was 3.9 and the “Full.fc (expression fold change for DUX4-fl targets)” value (gene ZSCAN4) was 8.3. The “Full.fc (expression fold change for DUX4-fl targets)” value (gene ZSCAN5B) was 3.8 and the “Full.fc (expression fold change for DUX4-fl targets)” value (gene hCG_1651160) was 8.3.
